One data set has as its system activated astrocytes. As to the kind of experiment: Astrocyte activation (anti-GFAP area fraction) in spinal cord ventral horn of SOD1 mice. Type of data set: in vivo, mouse. From the text:
The same test mice, spinal cord preparations and methods of analysis used in the neuroinflammatory study were identical to those used in the xCT quantitation study. Two neuroinflammatory cell populations were quantitated: (1) activated microglial cells using an antibody to the F4/80 antigen, and (2) activated astrocytes, using an antibody to the GFAP antigen. For each objective image, light parameters were optimized and kept consistent across all sections. Images that were captured at 20× were then imported into ImageJ freeware (NIH, Bethesda, Md.). A maximum entropy threshold algorithm was applied to all images in a completely blinded fashion to filter out all pixels that were not stained as DAB positive. 20× images were analyzed in a blinded fashion and mean area fraction occupied by stain was tabulated. Levels of neuroinflammation in the spinal cord were assessed by measuring the area fraction of the area of the ventral horn in the spinal cord occupied by activated astrocytes or microglia. […] The samples were then incubated with the primary antibody (Anti-GFAP) purchased from Abcam (Catalog # Ab10062; Cambridge, Mass.), diluted 1:1000 in PBS overnight at 4° C. Reaction products were developed using the Vector ImmPress system (Vector Labs, Burlingame, Calif.) using an anti-mouse IgG-conjugated horseradish peroxidase.

In another data set the target is T1, xCT (Rattus norvegicus, UniProt A0A8I6AB70).
T1 construct: host or cells: primary rat astrocytes
T1 sequence (A0A8I6AB70 1-502): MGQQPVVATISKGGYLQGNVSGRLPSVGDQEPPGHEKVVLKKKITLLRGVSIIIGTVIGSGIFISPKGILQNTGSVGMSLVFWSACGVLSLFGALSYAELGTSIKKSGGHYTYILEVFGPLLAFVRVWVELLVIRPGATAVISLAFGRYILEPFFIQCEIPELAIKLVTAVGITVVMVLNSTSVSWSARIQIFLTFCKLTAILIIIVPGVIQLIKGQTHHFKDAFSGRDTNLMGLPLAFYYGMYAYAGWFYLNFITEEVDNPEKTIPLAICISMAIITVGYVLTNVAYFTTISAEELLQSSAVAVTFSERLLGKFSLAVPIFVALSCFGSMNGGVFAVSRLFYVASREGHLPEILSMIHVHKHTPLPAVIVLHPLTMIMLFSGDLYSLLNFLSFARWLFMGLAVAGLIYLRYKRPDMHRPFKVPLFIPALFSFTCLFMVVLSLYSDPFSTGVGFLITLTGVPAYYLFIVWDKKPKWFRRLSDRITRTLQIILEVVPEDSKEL
T1 sequence (Q794F9 whole entry partner): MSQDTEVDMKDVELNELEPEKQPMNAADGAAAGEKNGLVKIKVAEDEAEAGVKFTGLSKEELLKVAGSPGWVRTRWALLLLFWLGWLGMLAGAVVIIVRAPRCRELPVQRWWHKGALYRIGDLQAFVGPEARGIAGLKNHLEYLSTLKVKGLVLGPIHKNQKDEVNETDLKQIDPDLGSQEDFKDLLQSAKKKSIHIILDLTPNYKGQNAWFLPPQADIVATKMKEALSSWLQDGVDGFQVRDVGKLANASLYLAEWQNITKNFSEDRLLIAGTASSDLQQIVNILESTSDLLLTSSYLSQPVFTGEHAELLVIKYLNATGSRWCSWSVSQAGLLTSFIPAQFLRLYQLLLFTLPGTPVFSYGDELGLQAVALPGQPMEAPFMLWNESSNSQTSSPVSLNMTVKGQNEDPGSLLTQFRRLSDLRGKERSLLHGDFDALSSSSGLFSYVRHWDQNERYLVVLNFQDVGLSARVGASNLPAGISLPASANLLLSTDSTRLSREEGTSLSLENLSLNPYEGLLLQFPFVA
As to the kind of experiment: Extracellular glutamate from primary astrocytes (Amplex Red Glutamic Acid/Glutamate Oxidase Assay). It is filed as cell-based. To be noted: sulfasalazine 50 μM in minimal media after TNF-alpha 100 μg/ml. From the text: xCT is a cystine-glutamate exchange protein that imports extracellular cystine in exchange for exporting intracellular glutamate. xCT activity can be measured by measuring the level of the extracellular glutamate that is exported. For detection of extracellular glutamate, the Amplex Red Glutamic Acid/Glutamate Oxidase Assay Kit from Life Technologies (Catalog #A-1222, Grand Island, N.Y.) was used following the manufacturer's instructions. Fluorescence from the Amplex Red fluorophore is directly proportional to glutamate concentration and was detected on an Enspire plate reader (Perkin-Elmer (Model #2300, Santa Clara, Calif.) with excitation wavelength at 530 nm and detection wavelength at 590 nm according to the manufacturer's instructions.
Astrocytes were grown in 24-well microtiter plates at a density of approximately 10,000 cells/well in a total volume of 400 μl of astrocyte media. Cells were incubated 18 hours in either astrocyte media plus 100 μM cystine (Catalog #C8755; Sigma-Aldrich) or astrocyte media plus 100 μM cystine plus TNF-alpha (100 μg/ml). After 18 hours, the media was removed and the adherent astrocytes washed twice with PBS and then 400 μL of minimal media was added to the cells. The minimal media was EBSS (catalog #E3024, Sigma-Aldrich) supplemented with 100 μM cystine and 10 mM D-glucose (catalog #G8769, Sigma-Aldrich).
The top 25 μL of the supernatant was then transferred to a 0.5 ml microfuge tube and the aliquots frozen at −80.
For the glutamate assay, samples of the media were thawed, pipetted up and down to ensure mixing and 20 μl added to 80 μl of the Amplex Red assay mix in a 96-well microtiter plate (catalog #M4436, Greiner, Frickenhausen, Germany). The reactions were covered in aluminum foil and allowed to proceed for 30 minutes at 37° C. and then fluorescence measured as described above.
Concurrently with analysis of the astrocyte samples, a standard curve of the Amplex Red glutamate assay in the minimal media was prepared following the manufacturer's instructions and using known concentrations of glutamate: 0, 0.5, 1, 2 and 4 μM. Table 19 gives the numerical results of the standard curve assay and the results are depicted graphically in FIG. 17.

For data set [1] the following is noted: 2 g oral dose, people with ABCG2 genotype 421C/C; cited from earlier work.

Take `O=C(O)c1cc(/N=N/c2ccc(S(=O)(=O)Nc3ccccn3)cc2)ccc1O` [Sulfasalazine, 2-hydroxy-5-[(E)-2-{4-[(pyridin-2-yl)sulfamoyl]phenyl}diazen-1-yl]benzoic acid]: the “Decreased activation vs. vehicle treated SOD1 mice” value was “No decrease” in the data set with activated astrocytes (Cervical, day 85); “significantly lowered astrocyte activation” with activated astrocytes (Cervical, day 100, listed as Sulfasalazine formulation); “Strong decrease (p < 0.01)” in the data set on activated astrocytes (Cervical, day 100, listed as sulfasalazine formulation); “Decrease (p < 0.05)” in the data set with activated astrocytes (Combined, day 85); “Trend” in the data set with activated astrocytes (Combined, day 100); “significantly lowered astrocyte activation” in the data set with activated astrocytes (Lumbar, day 85, listed as Sulfasalazine formulation). The “Decreased activation vs. vehicle treated SOD1 mice” value in the data set on activated astrocytes (Lumbar, day 85, listed as sulfasalazine formulation) is recorded as “Decrease (p < 0.05)”; in the data set with activated astrocytes (Lumbar, day 100, listed as Sulfasalazine formulation) it was “did not affect astrocyte activation”; with activated astrocytes (Lumbar, day 100, listed as sulfasalazine formulation), “No decrease”; in the data set on activated astrocytes (Thoracic, day 85), “Trend”; with activated astrocytes (Thoracic, day 100) it was “No decrease”. The Calculated glutamate levels is 0.25 µM at xCT (30 minutes), 0.17 µM on xCT (120 minutes) and 0.27 µM on xCT (240 minutes). For the same compound, the Fluorescence units at xCT (30 minutes) is reported as 4467; at xCT (120 minutes), 4199; at xCT (240 minutes) it was 4525. The “time plasma levels above 10 μg/ml were maintained” value in data set [1] is reported as “approximately 7 hours”.
